Test results reported in patent publication US7741464B2, “Compositions and methods of using CRMP-1 and its fragments for treating cancer” (Advpharma Inc., priority 2007, dated 2010).
Where two headings read alike, the source gives them in different places.

Assays:
[1] = system: DU145 cells; test: Antiproliferative effect after transient transfection; format: cell-based, human; settings: for selectivity on antiproliferative ability: prostate cancer cells (PC-3, DU145) vs human prostate normal cell line PZ-HPV-7
From the text: (§1) All cell lines were purchased from Food Industry Research and Development Institute (FIRDI), Hsinshu, Taiwan. They were originated from different tissues or organs, including: • (1) human lung cancer cells: adenocarcinoma A549 (BCRC60074), squamous cell carcinoma H520 (BCRC60124), and large-cell carcinoma H460 (CCRC600373), • (2) human prostate cancer cell: adenocarcinoma PC-3 (CCRC60112) and carcinoma DU145 (CCRC60348) isolated from metastatic brain site; • (3) human colon cancer cells: adenocarcinoma SW 480 (CCRC60249), CC-M1 (BCRC60448), and DLD-1 (CCRC60132); • (4) human breast cancer cells: ductal carcinoma BT-474 (CCRC 60359), MCF-7 (CCRC60436), and ZR-75-1 (CCRC60055); • (5) Chinese hamster lung cell V79-4 (BCRC60183), and • (6) human prostate normal cell PZ-HPV-7 (CCRC60136).
(§2) The cultivation of cell lines was as described as the instruction provided by Food Industry Research and Development Institute (FIRDI), while 10% fetal bovine serum (JRH Biosciences, USA) was supplemented as final concentration, if necessary. The human prostate normal cell line PZ-HPV-7 was maintained in Keratinocyte-SFM medium (Life Technologies, Inc., US).
(§3) Mammalian cells were seeded to 6-well plate (Corning Inc., USA) with a cell density of 2˜8×10^5 and incubated at 37° C. for overnight prior to transfection. Each cell line was respectively transfected with the pCI-neo Mammalian Expression Vector (as control plasmid; Promega, USA) or with the hCRMP-1-related expression plasmid by using Lipofectamine™ Reagent (Invitrogen, #18324-020). A series of expression plasmid containing full-length or partial gene fragment of hCRMP-1, were pNCRMP1, pNCN1, pNCN3, pNCN4, pNCN5, pNCN6, and pNCN7, whose constructions were described in Example 1 and Example 2.
(§4) The nomenclature of transfected cell line was according to the cell line and expression plasmid and characterized as “cell line/expression plasmid.” Quantitation of viable cells after transfection was performed by using hemocytometer after 5-days incubation at 37° C. (R. Ian Freshney: Culture of Animal Cells, A Manual of Basic Technique, Chapter 20, pp. 309-312, WILEY-LISS, Canada (2000)).
(§5) The antiproliferative effect (in percentage) of each cell line transfected with individual expression plasmid was normalized with the same cell line transfected with control plasmid as follows: Antiproliferative effect=100%×(1−(number of cells transfected with expression plasmid÷number of cells transfected with control plasmid))

[2] = system: PC-3 transient transfectants; test: Chemosensitivity of transient transfectants (cell counting); format: cell-based; settings: Homo sapiens, 72 h
Description: (§6) Six human cancer cell lines, including human colon cancer cell lines Caco-2, CC-M1, DLD-1; human prostate cancer cell lines DU145, PC-3; and human breast cancer cell line MCF-7, were tested in an experiment on improvement of chemosensitivity. Two expression plasmids, pNCRMP1 and pNCN3, and the pCI-neo vector (control plasmid), were used for transfection, respectively. The general cultivation conditions and transfection procedures were the same as described in Example 3.
(§7) Treatment of transient transfected cell lines using chemical agent was immediately performed as follows, and quantification of viable cells was performed by counting using hemocytometer after 3-days incubation at 37° C.: • (1) Three types of transient transfected human colorectal cancer cells were treated with 5-fluorouracil; • (2) The transient transfected human prostate cancer cell line DU145 was treated with Adriamycin™ (doxorubicin), cyclophosphamide and etoposide; • (3) The transient transfected human prostate cancer cell line PC3 was treated with cyclophosphamide, etoposide, and paclitaxel; and, • (4) The transient transfected human breast cancer cell line MCF-7 was treated with Adriamycin™ (doxorubicin) and paclitaxel.

[3] = system: DU145 transient transfectants; test: as above; format: cell-based, human; settings: read-out: IC50 of chemical agent
Description: as §6, §7

[4] = system: H520 stable transfectants; test: Chemosensitivity (MTT cytotoxicity) of stable transfectants; format: cell-based; settings: Homo sapiens, read-out: IC50 of chemical agent
From the text: Three human cancer cell lines, including lung cancer cell line H520 and two human prostate cancer cell lines (PC-3 and DU145) were applied for selection of stable transfectants. Four expression plasmids, including pNCRMP1, pNCN1, pNCN3, and pNCN4, and the pCI-neo vector (as control plasmid) were used for transfection, respectively. The general cultivation condition and transfection procedures were the same as described in Example 3. The transfected cells were further cultivated under the same conditions as their parental cell lines and selected with 0.6-1 mg antibiotic G418 per ml (Kao et al., Oncogene 16: 546-554 (1998); Xiaolin et al, Cancer Research 65: 9762-9770 (2005)).
Three agents, including caffeic acid phenethyl ester (CAPE; Sigma, US), Adriamycin™ (doxorubicin) (Pharmacia & Upjohn S.P.A. Milan, Italy), and paclitaxel (Taxol; Bristol-Myers Squibb Co., Wallingford, Conn.), were dissolved in DMSO (dimethyl sulfoxide; Sigma) for preparation of stock solution, respectively. A serial dilution was prepared with DPBS buffer for chemosensitivity tests. The human lung squamous carcinoma stable transfectants H520 were treated with both CAPE and Adriamycin™ (doxorubicin) for four different concentrations, e.g. 0.05, 0.01, 0.002, and 0.0004 mM, while the administering of paclitaxel was performed at different concentrations, e.g. 1000, 200, 40, and 8 nM. Both types of prostate stable transfectants were only treated with paclitaxel for eight concentrations ranging from 0.1 mM to 1.28 nM with 1/5 dilution each step.
MTT (3-(4,5-dimethylthiazol-2-yl)-2,5-diphenyltetrazolium bromide; Sigma, Inc.) assay (Monks et al., J. Natl. Cancer Inst. 83:757-766 (1991); Paull et al, J. Natl. Cancer Inst. 81:1088-1092 (1989)) was applied for studying the cytotoxic effect of indicated agent. The absorbance was measured both at 545 nm and at 690 nm (served as reference) using the 96-well spectrophotometer reader (Emax, Molecular Device Inc., California, US) (Chen et al., Yi Xue Za Zhi (Taipei) 46:7-16 (1990)). The relative growth inhibition was calculated as follows: Relative growth inhibition=100%×(1−(OD545nm (Treated cells)−OD690nm(Treated cells))÷(OD545nm(untreated cells)−OD690nm(untreated cells)))
The 50% inhibition concentration (IC50) was determined after graphical plotting of spectrophotometric measurements and interpolation by EXCEL software.

[5] = system: MCF-7 transient transfectants; test: Chemosensitivity of transient transfectants (cell counting); format: cell-based; settings: Homo sapiens, MCF7, 72 h, read-out: IC50 of chemical agent
Description: as §6, §7

[6] = system: transient transfected colorectal cell lines (Caco-2, CC-M1, DLD-1); test: as above; format: cell-based, human; settings: with pNCRMP1 or pNCN3 transient transfected colorectal cell lines; data not shown
Description: as §6, §7

[7] = system: CC-M1 cells; test: Antiproliferative effect after transient transfection; format: cell-based, human; settings: 5-days incubation, normalized to pCI-neo control plasmid
From the text: as §1, §2, §3, §4, §5

[8] = system: H460 cells; test: as above; format: cell-based, human; settings: viable cells counted after 5-days incubation, normalized to pCI-neo control plasmid
From the text: as §1, §2, §3, §4, §5

[9] = system: MCF-7 cells; test: as above; format: cell-based, human; settings: MCF-7, transient transfection, 5-days incubation, normalized to pCI-neo control plasmid
From the text: as §1, §2, §3, §4, §5

[10] = system: PC-3 cells; test: as above; format: cell-based, human; settings: PC-3, transient transfection, 5-days incubation, normalized to pCI-neo control plasmid
From the text: as §1, §2, §3, §4, §5

[11] = system: poorly differenciated human lung adenocarcinoma cells; settings: cells established from a patient; Shih et al., J. Natl. Cancer Inst. 93(18) (2001); cited from earlier work
[12] = Homo sapiens, DU-145, 72 h, transient transfectant DU145/pCIneo (control plasmid), 3-days incubation
[13] = Homo sapiens, DU-145, 72 h, transient transfectant DU145/pNCN3, 3-days incubation
[14] = Homo sapiens, DU-145, 72 h, transient transfectant DU145/pNCRMP1, 3-days incubation
[15] = NCI-H520, stable transfectant H520/pCI-neo/1 (control plasmid), MTT
[16] = NCI-H520, stable transfectant H520/pNCN1/1, MTT
[17] = NCI-H520, stable transfectant H520/pNCN3/1, MTT
[18] = NCI-H520, stable transfectant H520/pNCN4/1, MTT
[19] = NCI-H520, stable transfectant H520/pNCRMP1/1, MTT

**Q.** For “CN7: active fragment of hCRMP-1, 458-572 of SEQ ID NO: 1 (SEQ ID NOS: 25 and 43)”, which “selectivity on antiproliferative ability” value [1] is on record?
**A.** 28%

**Q.** For `COc1cc([C@@H]2c3cc4c(cc3[C@@H](O[C@@H]3O[C@@H]5CO[C@@H](C)O[C@H]5[C@H](O)[C@H]3O)[C@H]3COC(=O)[C@H]23)OCO4)cc(OC)c1O` [Etoposide, etoposide], which IC50 ([2]; transient transfectant PC-3/pCIneo (control plasmid), 3-days incubation, read-out: IC50 of chemical agent) is on record?
**A.** 64000 nM

**Q.** What about the IC50 ([2]; transient transfectant PC-3/pNCN3, 3-days incubation, read-out: IC50 of chemical agent) of the same molecule?
**A.** > 100000 nM

**Q.** What about the IC50 ([2]; transient transfectant PC-3/pNCRMP1, 3-days incubation, read-out: IC50 of chemical agent) of the same molecule?
**A.** 33000 nM

**Q.** And the IC50 [3, 12]?
**A.** 460 nM

**Q.** What about the IC50 [3, 13] of the same molecule?
**A.** 710 nM

**Q.** And the IC50 [3, 14]?
**A.** 710 nM

**Q.** What does the source list for `COc1cccc2c1C(=O)c1c(O)c3c(c(O)c1C2=O)C[C@@](O)(C(=O)CO)C[C@@H]3O[C@H]1C[C@H](N)[C@H](O)[C@H](C)O1` [Adriamycin ™ (doxorubicin), doxorubicin]?
**A.** IC50 [4, 15]: 740 nM; IC50 [4, 16]: < 400 nM; IC50 [4, 17]: < 400 nM; IC50 [4, 18]: 500 nM; IC50 [4, 19]: < 400 nM; IC50 ([5]; transient transfectant MCF-7/pCIneo (control plasmid), 3-days incubation): 2130 nM; IC50 ([5]; transient transfectant MCF-7/pNCN3, 3-days incubation): 320 nM; IC50 ([5]; transient transfectant MCF-7/pNCRMP1, 3-days incubation): 100 nM; IC50 [3, 12]: 73 nM; IC50 [3, 13]: 60 nM; IC50 [3, 14]: 79 nM

**Q.** With `O=C(/C=C/c1ccc(O)c(O)c1)OCCc1ccccc1` [CAPE, caffeic acid phenethyl ester] as the molecule, how does the IC50 [4, 15] read?
**A.** > 50000 nM

**Q.** What about the IC50 [4, 16] of the same molecule?
**A.** 23000 nM

**Q.** What about the IC50 [4, 17] of the same molecule?
**A.** 29000 nM

**Q.** What about the IC50 [4, 18] of the same molecule?
**A.** 27000 nM

**Q.** And the IC50 [4, 19]?
**A.** 17000 nM

**Q.** For “CN3: active fragment of hCRMP-1, 208-480 of SEQ ID NO: 1 (SEQ ID NOS: 17 and 39)”, which “selectivity on antiproliferative ability” value [1] is on record?
**A.** around 20%

**Q.** With `O=c1[nH]cc(F)c(=O)[nH]1` [5-fluorouracil] as the molecule, how does the improvement of chemosensitivity [6] read?
**A.** no improvement of chemosensitivity

**Q.** For “full-length hCRMP-1: human collapsin response mediator protein-1, full-length protein with 572 amino acids (SEQ ID NO: 1)”, which Anti-proliferation effect [7] is on record?
**A.** inhibits cancer cell proliferation

**Q.** And the Anti-proliferation effect ([1]; DU145, transient transfection, 5-days incubation, normalized to pCI-neo control plasmid)?
**A.** inhibits cancer cell proliferation

**Q.** What about the Anti-proliferation effect [8] of the same molecule?
**A.** inhibits cancer cell proliferation

**Q.** What about the Anti-proliferation effect ([8]; listed as full-length CRMP-1) of the same molecule?
**A.** has antiproliferative activity

**Q.** And the Anti-proliferation effect [9]?
**A.** inhibits cancer cell proliferation

**Q.** What about the Anti-proliferation effect [10] of the same molecule?
**A.** inhibits cancer cell proliferation

**Q.** And the antiproliferative activity [11]?
**A.** no antiproliferative activity

**Q.** For `O=P1(N(CCCl)CCCl)NCCCO1` (centres unmarked) [Cyclophosphamide, cyclophosphamide], which IC50 ([2]; read-out: IC50 of chemical agent, transient transfectant PC-3/pCIneo (control plasmid), 3-days incubation) is on record?
**A.** > 100000 nM

**Q.** What about the IC50 ([2]; read-out: IC50 of chemical agent, transient transfectant PC-3/pNCN3, 3-days incubation) of the same molecule?
**A.** 55000 nM

**Q.** What about the IC50 ([2]; read-out: IC50 of chemical agent, transient transfectant PC-3/pNCRMP1, 3-days incubation) of the same molecule?
**A.** > 100000 nM

**Q.** What about the IC50 ([3]; Homo sapiens, DU-145, 72 h) of the same molecule?
**A.** > 100000 nM

**Q.** And the IC50 ([3]; transient transfectant DU145/pCIneo (control plasmid), 3-days incubation)?
**A.** > 100000 nM

**Q.** What about the IC50 ([3]; transient transfectant DU145/pNCN3, 3-days incubation) of the same molecule?
**A.** > 100000 nM
